# Laboratory results as given in patent publication US20240166687A1, “REGULATORY T CELL-INDUCING PEPTIDE AND COMPOSITION INCLUDING SAME FOR PREVENTING OR TREATING AUTOIMMUNE DISEASE” (IUCF-HYU (INDUSTRY-UNIVERSITY COOPERATION FOUNDATION …, priority 2021, published 2024).
# B1: KIKKVKKKGRKGSKIKKVKKKGRKGGAMLAAASPLTTGVYVKMPPTEPECEKQFQPYFIPIN (peptide)
# chain: KIKKVKKKGRKGSKIKKVKKKGRKGGAMLAAASPLTTGVYVKMPPTEPECEKQFQPYFIPIN
# notes: dNP2-ctCTLA-4 variant, K motif residues replaced with alanine
# Legend:
# [1] = tested on: Th17 cells differentiated from splenocytes isolated from mouse; assay: Analysis of effect under Th17 differentiation conditions (flow cytometry of IL-17A and Foxp3); assay type: cell-based; settings: sample 2 μM; for effect of suppressing immune response (decrease of IL-17 and increase of Foxp3): flow cytometry 4 days later, comparator as named in the value (Th17/PBS control, K1, AP-K2)
# From the text: Th17 cells are a subset of CD4 T cells. The Th17 cells are known to secrete a cytokine known as IL-17 and cause inflammation. This is the major cause of autoimmune disease. And, Treg cells (regulatory T cells) are known to suppress and regulate inflammation by expressing the transcription factor called Foxp3. Accordingly, since it is thought that the effect of preventing and treating autoimmune disease may be achieved by regulating inflammation by inhibiting Th17 cells (IL-17) and increasing Treg (Foxp3) cells, the effect of the peptides of the present disclosure was investigated.
# Undifferentiated CD4 T cells (naive CD4 T cells) were isolated from splenocytes of 6- to 8-week-old C57BL/6 mice using a mouse undifferentiated CD4+ T cell (naive CD4 T cell) isolation kit (Miltenyi Biotec, Auburn, CA, USA) according to the manufacturer's protocols. For RNAseq, the undifferentiated CD4 T cells (naive CD4 T cells) from the Foxp3-GFP mice were purified, differentiated into Th17 cells and sorted into Foxp3^+ and Foxp3^− populations using a cell sorter (FACS Aria cell sorter BD Biosciences, Franklin Lakes, NJ, USA). The purified undifferentiated CD4 T cells (naive CD4 T cells) were activated with plate-bound anti-CD3 (2 or 5 μg/mL, 553057; BD Pharmingen, La Jolla, CA) and anti-CD28 (2 or 5 μg/mL, 553294; BD Pharmingen, La Jolla, CA) antibodies and differentiated by treating with the following cytokine cocktails in a 96-well plate for 3 or 4 days: Th0; recombinant human TGF-β(R&D Systems) 0.25 ng/mL. Th1; anti-IL-4 (11B11; 16-7041-85; eBioscience) 5 μg/mL, IL-2 (212-12; Peprotech, Rocky Hill, NJ) 50 U/mL, recombinant murine IL-12 (212-12; Peprotech) 2 ng/mL, recombinant human TGF-β (R&D Systems) for Th1 0.25 ng/mL. Th17; anti-IFN-γ (XMG1.2; 16-7311-85; eBioscience) 5 μg/mL, anti-IL-4 (11B11; 16-7041-85; eBioscience) 5 μg/mL, recombinant murine TGF-β (7666-MB, R&D Systems, Minneapolis, MN) 2 ng/mL, IL-6 (216-16; Peprotech) 30 ng/mL, IL-23 (1887-ML-101; R&D Systems) 20 ng/mL, IL-1β (401-ML-010; R&D Systems) 20 ng/mL, and IL-2 (Peprotech) 50 U/mL. Treg; IL-2 (Peprotech) 50 U/mL and TGF-β (R&D Systems) 0.5 ng/mL.
# The cells were cotreated with the cytokine cocktails and the samples (2 μM). 4 days later, they were analyzed by flow cytometry using IL-17 and Foxp3 fluorescent antibodies. In some experiments, 5 μM PKC-η pseudosubstrate inhibitor (sc-3096; Santa Cruz) or 5 μM ERK inhibitor (UO126, 662005; Sigma) were also added.
# For flow cytometric analysis of living cells only, dead cells were excluded using the Zombie Aqua™ fixable viability kit (Biolegend) before staining with antibodies at room temperature for 10 minutes. After washing, surface proteins of the differentiated Th1, Th17 and Treg cells were stained with monoclonal antibodies at 4° C. for 15 minutes. To determine intracellular cytokine levels, the cells were restimulated with a cell stimulation cocktail (plus protein transport inhibitors) (ThermoFisher) at 37° C. for 4 hours and then stained with surface marker antibodies. The cells were then fixed, permeabilized using a Foxp3/transcription factor staining buffer set (eBioscience) and stained with anti-mouse IFN-γ, anti-mouse IL-17 and anti-mouse Foxp3. The cells were analyzed using a FACS Canto II flow cytometer and the FlowJo software version 10.7.
# [2] = tested on: multiple sclerosis animal model; assay: Analysis of efficiency in multiple sclerosis (MS) animal model (MOG35-55/CFA + PTX); assay type: in vivo, C57BL/6 mice; settings: for clinical symptoms (clinical score): 100 μg (5 mg/kg) intraperitoneally once a day from day 7 after PTX; for clinical symptoms (clinical score) / number of Treg cells (spinal cord) / number of infiltrated lymphocytes in the spinal cord: comparator as named in the value; for number of Treg cells (spinal cord) / number of infiltrated lymphocytes in the spinal cord: 100 μg intraperitoneally once a day from day 7
# Experimental: 8-week-old female C57BL/6 mice were purchased from Orient Bio (Daejeon, Korea). All animal experiments were conducted in compliance with the animal experiment operation regulations of the Institutional Animal Care and Use Committee of Hanyang University. The mice were acclimatized for 2 weeks before the experiment. The mice were raised in a breeding room maintained at temperature 22±2° C. and 40-60% humidity with free access to feed. The light and dark cycles were adjusted at 12-hour intervals. Multiple sclerosis was induced by subcutaneous immunization using a MOG35-55/CFA emulsion PTX kit (Hooke Labs, Lawrence, MA, USA) according to the manufacturer's protocol. The mice were anesthetized with isoflurane and MOG35-55/CFA was subcutaneously injected bilaterally, followed by intraperitoneal injection of PTX (pertussis toxin) 2 hours and 24 hours later. The mice were randomly assigned to different groups after MOG immunization. Because paralysis due to immune response begins on day 7 after the injection of PTX, 100 μg (5 mg/kg) of the samples according to the present disclosure were intraperitoneally injected to the groups once a day from day 7. Each group was monitored every day after inducing multiple sclerosis and clinical symptoms were recorded. The clinical symptoms were evaluated based on the scoring system described in Table 2. The higher clinical scores indicate severer symptoms. The mice were euthanized at the end of the experiments and lymphocytes were isolated from the spinal cords. The isolated spinal cords were treated at 37° C. with 1 mg/mL of DNase 1 (10104159001; Sigma-Aldrich) and 1 mg/mL of collagenase D (11088866001; Sigma-Aldrich) and incubated at 80 rpm on a shaker for 40 minutes. After the enzyme treatment, 500 mM EDTA was added and lymphocytes were isolated by Percoll (GE Healthcare, Little Chalfont, UK) density-gradient centrifugation. The isolated infiltrated lymphocytes were restimulated with a cell stimulation cocktail (plus protein transport inhibitors) (ThermoFisher) at 37° C. for 4 hours and stained with anti-mouse CD4. The cells were fixed, permeabilized using a Foxp3/transcription factor staining buffer set (eBioscience) and stained with anti-mouse IFN-γ, anti-mouse IL-17 or anti-mouse Foxp3. The cells were analyzed using a FACS Canto flow cytometer and the FlowJo software version 10.7.1. For histological analysis, paraffin blocks of the spinal cord tissues were deparaffinized and treated with luxol fast blue. For combination staining, hematoxylin and eosin were used (Dako). The cells infiltrated in the white matter region of the spinal cord tissues were counted using the Image J software version 2.0.0. The increased number of Th1 and Th17 immune cells in the spinal cord means more severe multiple sclerosis, and the increased number of Treg cells means that the function of preventing or treating autoimmune disease such as multiple sclerosis is improved as the tolerance to self-antigens is maintained and the excessive response by the immune system is prevented.
molecule,measurement,setting,value
RRRWCKRRRGGKMLKKRSKMLKKRSKMLKKRS (AP-K3),effect of inhibiting the IL-17 cytokine compared to the dNP2-ctCTLA-4 group,[1]; 4 days,remarkably superior effect of inhibiting the IL-17 cytokine as compared to the dNP2-ctCTLA-4 group
same,effect of suppressing immune response (decrease of IL-17 and increase of Foxp3),[1],significantly better effect of suppressing immune response than the PBS (control group)
same,clinical symptoms (clinical score),[2],significantly improved results for clinical symptoms as compared to the PBS (control group)
same,number of Treg cells (spinal cord),[2],significantly number of regulatory T cells (Treg) as compared to the PBS (control group)
same,number of infiltrated lymphocytes in the spinal cord,[2],"significantly smaller number of infiltrated lymphocytes in the spinal cord as compared to the PBS (control group), dNP2 and AP groups"
B1,effect of suppressing immune response (decrease of IL-17 and increase of Foxp3),[1],the function of the decrease of IL-17 and the increase of Foxp3 was lost
same,clinical symptoms (clinical score),[2],significantly lower clinical symptoms as compared to the PBS group
same,number of Treg cells (spinal cord),[2],smallest number of Treg cells
same,number of infiltrated lymphocytes in the spinal cord,[2],significantly larger number of infiltrated lymphocytes in the spinal cord as compared to the PBS group
same,function of inhibiting myelin damage (histological analysis of the spinal cord),"[2]; 100 μg intraperitoneally once a day from day 7 to day 14, luxol fast blue, H&E",the function of inhibiting myelin damage was lost
